Assays:
Format in all cases: cell-based, human
[1] = system: TRFP primed T cell cultures; assay: T cell proliferation assay (tritiated thymidine incorporation) of TRFP-primed T cells restimulated with allergens or peptides; details: for T cell stimulatory activity: summarising Tables 2 and 3
Experimental: Peripheral blood mononuclear cells (PBMC) were purified from 60 ml of heparinized blood from cat allergic patients. PBMC were subsequently treated as described below, although in individual cases, the length of time of cultivation with IL-2 and/or IL-4 and the specific peptides used for stimulation varied.
10 ml of PBMC from patient 131 at 10^6/ml were cultured at 37°C for 7 days in the presence of 5 micrograms purified TRFP/ml RPMI-1640 supplemented with 5% pooled human AB serum. Viable cells were purified by Ficoll-Hypaque centrifugation and cultured for three weeks at 5 units recombinant human IL-2/ml and 5 units recombinant human IL-4/ml. The resting T cells were then restimulated (secondary) with 5 micrograms TRFP at 2 x 10^5/ml in the presence of irradiated (3500 Rads) autologous PBMC at a concentration of 5 x 10^5/ml for three days, purified by Ficoll-Hypaque centrifugation and grown in 5 units IL-2 and 5 units IL-4/ml for two weeks. For assay, 2 x 10^4 resting secondary T cells were restimulated (tertiary) in the presence of 5 x 10^4 irradiated (3500 Rads) autologous PBMC or 2 x 10^4 transformed B cells (20,000 Rads) with various concentrations of allergens or their fragments in a volume of 200 microliters in a 96-well round bottom assay plates for 3 days. Each well then received 1 microCurie tritiated (methyl) thymidine for 16 hours. The counts incorporated were collected onto glass fiber filters and processed for liquid scintillation counting.
Antigens used: T cell reactive feline protein (TRFP), Hollister-Stier cat epithelium skin test reagent (CST), IPC ragweed pollen extract (pollen), and synthetic peptides derived from the TRFP protein sequence (See Figures 6 and 7). Significant T cell proliferation is generally regarded as greater than 2.5 times the media control (T cells and antigen presenting cells alone).
Alternatively, PBMC were treated as follows: the primary stimulated cells were cultured in IL-2/IL-4 for two weeks. The resting T cells derived from this culture were tested in a secondary assay with some, but not all, of the above allergens. […] This type of epitope analysis has allowed the definition of T cell epitopes present in TRFP.

[2] = system: Patient 155 TRFP secondary primed T cells; assay: Induction of T cell anergy/tolerance in vitro, followed by proliferation assay on antigenic challenge
Experimental: The T cell cultures were exposed to 5µg/ml TRFP on day 0 and 5µg/ml, 10µg/ml, 10µg/ml and 20µg/ml thereafter. The peptide treated cultures were exposed to 1µg/ml peptide on day 0 and 1µg/ml, 1µg/ml, 2µg/ml and 5µg/ml thereafter. In addition, 0.5ml of fresh media was replaced on day 2. The cells were then washed and set up for a proliferation assay with 2x10^4 T cells and 2x10^4 irradiated (2500 Rad) autologous EBV and various doses of antigen. T cell proliferation was measured as incorporation of tritiated thymidine at day 9. […]

[3] = system: Peripheral blood mononuclear cells (PBMC); assay: Cytokine profiles (IL-2, IFN-γ, IL-4 cDNA) by PCR in a primary 36 hour PBMC culture; design: key to STIMULATION INDEX IL-2 / STIMULATION INDEX IFN-γ / STIMULATION INDEX IL-4: fold over medium control; undetectable control set to 1.00; details: Patient 409 primary 36 hour culture; for STIMULATION INDEX IL-2 / STIMULATION INDEX IFN-γ / STIMULATION INDEX IL-4: 20 micrograms TRFP/ml or 50 micrograms peptide/ml; for STIMULATION INDEX IL-2: medium not detectable, lowest measurable response set at 1.00; for STIMULATION INDEX IFN-γ / STIMULATION INDEX IL-4: relative to medium control; for RATIO IFN/IL-4 / RATIO IL-2/IL-4: ratio of stimulation indices
Experimental: Peripheral blood mononuclear cells (PBMC) were purified from cat-allergic patients as described in Example 5. Five x 10^6 PBMC were cultured at 2 x 10^6/ml for 36 hours in the presence of medium only, 20 micrograms purified TRFP/ml or 50 micrograms peptide/ml. The cells were then washed two times with phosphate buffered saline (PBS, pH 7.2) and lysed with 2 ml […] guanidinium isothiocyanate, 0.5% Sarkosyl, 5 mM sodium citrate, 0.1 M 2-mercaptoethanol, pH 7.0. The lysate was then forced through a 26 gauge needle to shear genomic DNA, and was layered onto a 2 ml cushion of 5.7 M CsCl, 0.01 M EDTA, pH 7.5 in diethylpyrocarbonate (DEPC)-treated water. The lysate was centrifuged at 35,000 RPM in a Beckman SW41 rotor for 18 hours at 20°C. The RNA pellet was resuspended in 0.4 ml TE (10 mM Tris, 1 mM EDTA) pH 7.5, 0.1% SDS, and then extracted three times with 0.5 ml phenol/0.2 ml chloroform. The RNA was then precipitated on dry ice with 2.5 volumes ice-cold ethanol, 1/10 volume 3 M sodium acetate, pH 5.2 in DEPC-treated water, rinsed once with 70% ethanol in DEPC-treated water, and dried. The RNA pellet was resuspended in 2 microliters TE, pH 7.5 in DEPC-treated water.
Total cellular RNA was converted to cDNA using the Superscript kit (BRL, Bethesda, MD). Two microliters of RNA were added to one microliter oligo (dT)12-18 (500 micrograms/ml) and 9 microliters water. The sample was heated to 70°C for 10 minutes and ice quenched. Four microliters 5X buffer were added to the sample along with 2 microliters 0.1 M DTT and 1 microliter dNTP mix (10 mM each, dATP, dCTP, dGTP, dTTP). One microliter reverse transcriptase (200U) was added and the reaction was carried out for one hour at 42°C. The reaction was terminated by incubation of the sample at 90°C for five minutes and stored at -80°C.
Ten-fold serial dilutions of T cell cDNA in 10 mM TRIS, pH 7.5 were amplified using the standard kit and protocol recommended by Perkin Elmer-Cetus (Redwood City, CA). Each sample received 26.65 microliters water, 5 microliters 10X PCR buffer, 8 microliters of dNTP mix (1.25 mM each of dATP, dCTP, dGTP and dTTP), 0.1 microliter alpha ^32P-dCTP (3000 Ci/mmol), 0.25 microliter AmpliTaq, 5 microliters cDNA and 5 microliters cytokine-specific 5' and 3' primers (20 micromolar). The primers used for most cytokines and the beta-actin control were purchased from Clontech (Redwood City, CA). The human IL-4 primers were purchased from Research Genetics (Huntsville, AL) and had the following sequences: [formula]
The reactions were carried out after overlaying each sample with one drop of mineral oil, with the following program in a programmable thermal cycler (MJ Research, Cambridge, MA).
The PCR products were extracted once with 25 microliters chloroform and 25 microliters of each sample were then electrophoresed on an 8% polyacrylamide gel at 250 V. The gel was dried and exposed to pre-flashed x-ray film. Several exposures of each gel were then scanned using a Shimadzu flying spot laser densitometer. Values on the linear portion of the titrations were then compared to the medium control values to obtain a stimulation index for each sample. Primers for beta-actin were included as a control for general cDNA levels in each sample. Where the medium control values are not detectable, the lowest measurable response was set at 1.00. In other experiments, levels of cytokine cDNA can be compared directly with previously amplified cytokine-specific cDNAs as standards. Thus, absolute levels of particular cytokine cDNAs can be compared from one sample to another and from one experiment to another. In this experiment, IL-2, IL-4 and IFN-gamma levels were measured. […] This analysis will be expanded to studies of other cytokines involved in the generation of allergic responses, such as IL-5, IL-8, IL-9, TGF-beta. Samples of cDNA from each treatment can also be saved for later analysis once additional cytokines are identified and sequenced. […]

[4] = Chain #1 TRFP peptides, average cpm with antigen divided by cpm of T cells and antigen presenting cells alone, responding patients, SI ≥ 2.5 positive
[5] = Chain #1 TRFP peptides, cat allergic patients, average SI of all responding patients multiplied by percent of patients with a positive response
[6] = Chain #2 TRFP peptides, cat allergic patients, average SI of responding patients multiplied by percent positive
[7] = Chain #2 TRFP peptides, cat allergic patients, average of responding patients

Row | Substance | SI [1, 4] | PI [1, 5] | T cell stimulatory activity ([1]; result in words) | T cell proliferation (cpm) following Antigenic challenge: Fel 8-3 ([2]; label = tolerance treatment over 5 days, challenge with Fel 8-3) | T cell proliferation (cpm) following Antigenic challenge: Ragweed Peptide ([2]; label = tolerance treatment over 5 days, challenge with Ragweed Peptide) | T cell proliferation (cpm) following Antigenic challenge: TRFP ([2]; label = tolerance treatment over 5 days, challenge with TRFP) | T cell proliferation (cpm) following Antigenic challenge: - ([2]; label = tolerance treatment over 5 days, no challenge antigen) | T cell proliferation (cpm) following Antigenic challenge ([2]; no tolerance treatment (-), label = challenge antigen) | STIMULATION INDEX IL-2 [3] | STIMULATION INDEX IFN-γ [3] | STIMULATION INDEX IL-4 [3] | RATIO IFN/IL-4 [3] | RATIO IL-2/IL-4 [3] | secondary T cell response of peripheral blood lymphocytes ([1]; patient 131, Figure 9, result in words) | PI [1, 6] | SI [1, 7]
1 | Fel 8-3: TRFP chain 1 peptide, amino acids 7 - 33 (KRDVDLFLTGTPDEYVEQVAQYKALPV; UniProt P30438 29-55, looked up, fragment) | 16.9 | 1437 | powerful activity | 3,850 cpm | 5,130 cpm | 12,320 cpm | 1,270 cpm | 58,150 cpm |  |  |  |  |  |  |  | 
2 | Fel 8: TRFP chain 1 peptide, amino acids 1 - 30 (EICPAVKRDVDLFLTGTPDEYVEQVAQYKA; UniProt P30438 23-52, looked up, fragment) | 18.1 | 1393 | most dominant T-cell epitopes |  |  |  |  |  | 1.0 | 1.8 | 0.3 | 6.0 | 3.3 | respond |  | 
3 | Fel 14: TRFP chain 1 peptide, amino acids 18 - 43 (PDEYVEQVAQYKALPVVLENARILKN; UniProt P30438 40-65, looked up, fragment) | 13.7 | 1054 | powerful activity |  |  |  |  |  | 106.9 | 75.0 | 1.9 | 39.5 | 56.3 |  |  | 
4 | Fel 17: TRFP chain 2 peptide, amino acids 12 - 33 (DVFFAVANGNELLLDLSLTKVN; UniProt P30440 29-50, looked up, fragment) |  |  |  |  |  |  |  |  | 315.1 | 82.4 | 7.5 | 11.0 | 42.0 |  | 421 | 6.1
5 | Fel 20-1: TRFP chain 2 peptide, amino acids 34 - 59 (ATEPERTAMKKIQDCYVENGLISRVL; UniProt P30440 51-76, looked up, fragment) |  |  |  |  |  |  |  |  |  | 12.0 | 4.6 | 2.6 |  |  | 395 | 5.9
6 | Fel 25: TRFP chain 2 peptide, amino acids 49 - 68 (YVENGLISRVLDGLVMTTIS; UniProt P30440 66-85, looked up, fragment) |  |  |  |  |  |  |  |  | 2.9 | 12.7 | 2.5 | 5.1 | 1.2 |  | 350 | 7.6
7 | Fel 28: TRFP chain 2 peptide, amino acids 60 - 82 (DGLVMTTISSSKDCMGEAVQNTV; UniProt P30440 77-99, looked up, fragment) |  |  | weakest T cell epitope containing region of TRFP |  |  |  |  |  |  | 3.8 | 0.5 | 7.6 |  |  | 94 | 3.6
8 | Fel 29: TRFP chain 2 peptide, amino acids 74 - 92 (MGEAVQNTVEDLKLNTLGR; UniProt P30440 91-109, looked up, fragment) |  |  |  |  |  |  |  |  | 1.2 | 3.0 | 1.1 | 2.7 | 1.1 |  | 259 | 5.5
